In US11377448B2, “Crystalline sodium salt of 5-methyl-(6S)-tetrahydrofolic acid” (priority 2017, dated 2022):

Key:
[1] = Long-term stability at 25° C./60% rh, content by HPLC; conditions: for 5-methyl-(6S)-tetrahydrofolic acid (% w/w) / Pyrazino-s-triazine derivative of 4α-hydroxy-5-methyl-THF (MeFox) (% w/w) / 5-methyl-(6S)-tetrahydrofolic acid (% rel.): 25° C./60% rh; for Pyrazino-s-triazine derivative of 4α-hydroxy-5-methyl-THF (MeFox) (% w/w): major degradation product; for 5-methyl-(6S)-tetrahydrofolic acid (% rel.): relative to initial value
Protocol: (§1) Amorphous monosodium salt of 5-methyl-(6S)-tetrahydrofolic acid prepared according to Reference Example 6, crystalline calcium salt of 5-methyl-(6S)-tetrahydrofolic acid, prepared according to literature procedures (EP 1 044 975 B1) and crystalline sodium salt of 5-methyl-(6S)-tetrahydrofolic acid, prepared as disclosed in Example 1, were stored at 25° C./60% rh. The content of 5-methyl-(6S)-tetrahydrofolic acid remaining in the samples was measured by HPLC at periodic intervals (% w/w). The content of 5-methyl-(6S)-tetrahydrofolic acid remaining was also compared to the initial value at the time of preparation (% rel.). Additionally the content of the pyrazino-s-triazine derivative of 4α-hydroxy-5-methyl-THF (MeFox), a major degradation product, was measured by HPLC at periodic intervals and disclosed as absolute values (% w/w).

[2] = Long-term stability at 40° C./75% rh, content by HPLC; assay type: physicochemical; conditions: for Pyrazino-s-triazine derivative of 4α-hydroxy-5-methyl-THF (MeFox) (% w/w): major degradation product; for 5-methyl-(6S)-tetrahydrofolic acid (% rel.): relative to initial value
Protocol: as §1, with “40° C./75%” for “25° C./60%”, “sample” for “samples”

[3] = purified/de-ionized water, room temperature, agitated and briefly sonicated
Protocol: The measurement of the kinetic solubility was conducted as described in the experimental part.
50 mg of crystalline sodium salt of 5-methyl-(6S)-tetrahydrofolic acid (according to Example 1) is weighed into a 4 ml glass vial with screw cap. Then 0.5 ml of purified/de-ionized water is added.
2.535 ml of purified/de-ionized water is added to the solid using an adjustable volumetric pipette. The mixture is vigorously agitated at room temperature and briefly sonicated.

Structure (SMILES)	5-methyl-(6S)-tetrahydrofolic acid (% w/w) ([1]; 0 months)	Pyrazino-s-triazine derivative of 4α-hydroxy-5-methyl-THF (MeFox) (% w/w) ([1]; 0 months)	5-methyl-(6S)-tetrahydrofolic acid (% rel.) ([1]; 0 months)	5-methyl-(6S)-tetrahydrofolic acid (% w/w) ([1]; 3 months)	Pyrazino-s-triazine derivative of 4α-hydroxy-5-methyl-THF (MeFox) (% w/w) ([1]; 3 months)	5-methyl-(6S)-tetrahydrofolic acid (% rel.) ([1]; 3 months)	5-methyl-(6S)-tetrahydrofolic acid (% w/w) ([1]; 6 months)	Pyrazino-s-triazine derivative of 4α-hydroxy-5-methyl-THF (MeFox) (% w/w) ([1]; 6 months)	5-methyl-(6S)-tetrahydrofolic acid (% rel.) ([1]; 6 months)	5-methyl-(6S)-tetrahydrofolic acid (% w/w) ([2]; 0 months)	Pyrazino-s-triazine derivative of 4α-hydroxy-5-methyl-THF (MeFox) (% w/w) ([2]; 0 months)	5-methyl-(6S)-tetrahydrofolic acid (% rel.) ([2]; 0 months)	5-methyl-(6S)-tetrahydrofolic acid (% w/w) ([2]; 3 months)	Pyrazino-s-triazine derivative of 4α-hydroxy-5-methyl-THF (MeFox) (% w/w) ([2]; 3 months)	5-methyl-(6S)-tetrahydrofolic acid (% rel.) ([2]; 3 months)	solubility (kinetic solubility) in water [3]	5-methyl-(6S)-tetrahydrofolic acid (% w/w) ([1]; 9 months)	Pyrazino-s-triazine derivative of 4α-hydroxy-5-methyl-THF (MeFox) (% w/w) ([1]; 9 months)	5-methyl-(6S)-tetrahydrofolic acid (% rel.) ([1]; 9 months)	5-methyl-(6S)-tetrahydrofolic acid (% w/w) ([2]; 6 months)	further results
CN1c2c(nc(N)[nH]c2=O)NC[C@@H]1CNc1ccc(C(=O)N[C@@H](CCC(=O)[O-])C(=O)O)cc1.[Na+] [5-methyl-(6S)-tetrahydrofolic acid monosodium salt]	84.9	0.43	100.0	60.6	2.60	71.3	63.2	2.75	74.5	84.9	0.43	100.0	61.6	2.79	72.6	–	–	–	–	–	–
CN1c2c([nH]c(N)nc2=O)NC[C@@H]1CNc1ccc(C(=O)N[C@@H](CCC(=O)[O-])C(=O)[O-])cc1.[Ca+2] [calcium salt of 5-methyl-(6S)-tetrahydrofolic acid]	80.7	0.20	100.0	79.0	0.84	97.9	77.7	0.90	96.3	80.7	0.20	100.0	78.5	1.01	97.2	smaller than 10 mg per 1 ml of water	78.5	0.85	97.3	78.0	5-methyl-(6S)-tetrahydrofolic acid (% w/w) ([1]; 12 months): 77.9 % w/w; Pyrazino-s-triazine derivative of 4α-hydroxy-5-methyl-THF (MeFox) (% w/w) ([1]; 12 months): 0.86 % w/w; 5-methyl-(6S)-tetrahydrofolic acid (% rel.) ([1]; 12 months): 96.5 % rel.; Pyrazino-s-triazine derivative of 4α-hydroxy-5-methyl-THF (MeFox) (% w/w) ([2]; 6 months): 0.96 % w/w; 5-methyl-(6S)-tetrahydrofolic acid (% rel.) ([2]; 6 months): 96.6 % rel.; 5-methyl-(6S)-tetrahydrofolic acid (% w/w) ([2]; 9 months): 78.8 % w/w; Pyrazino-s-triazine derivative of 4α-hydroxy-5-methyl-THF (MeFox) (% w/w) ([2]; 9 months): 0.93 % w/w; 5-methyl-(6S)-tetrahydrofolic acid (% rel.) ([2]; 9 months): 97.6 % rel.; 5-methyl-(6S)-tetrahydrofolic acid (% w/w) ([2]; 12 months): 77.8 % w/w; Pyrazino-s-triazine derivative of 4α-hydroxy-5-methyl-THF (MeFox) (% w/w) ([2]; 12 months): 0.95 % w/w; 5-methyl-(6S)-tetrahydrofolic acid (% rel.) ([2]; 12 months): 96.3 % rel.
CN1c2c(nc(N)[nH]c2=O)NC[C@@H]1CNc1ccc(C(=O)N[C@@H](CCC(=O)[O-])C(=O)[O-])cc1.[Na+].[Na+] [sodium salt of 5-methyl-(6S)-tetrahydrofolic acid]	82.3	0.07	100.0	80.0	1.01	97.3	78.6	1.31	95.5	82.3	0.07	100.0	78.6	1.52	95.6	greater than 100 mg per 1 ml of water	74.7	1.42	90.8	77.3	stability over a long period of time compared to the crystalline calcium salt ([1]; summary of Tables 1 to 4 (25° C./60% rh and 40° C./75% rh)): comparable stability; Pyrazino-s-triazine derivative of 4α-hydroxy-5-methyl-THF (MeFox) (% w/w) ([2]; 6 months): 1.69 % w/w; 5-methyl-(6S)-tetrahydrofolic acid (% rel.) ([2]; 6 months): 94.0 % rel.; 5-methyl-(6S)-tetrahydrofolic acid (% w/w) ([2]; 9 months): 77.9 % w/w; Pyrazino-s-triazine derivative of 4α-hydroxy-5-methyl-THF (MeFox) (% w/w) ([2]; 9 months): 1.51 % w/w; 5-methyl-(6S)-tetrahydrofolic acid (% rel.) ([2]; 9 months): 94.7 % rel.
